Results from ChEMBL document CHEMBL5338790, “Discovery of Subcellular-Targeted Aza-BODIPY Photosensitizers for Efficient Photodynamic Antitumor Therapy” (J Med Chem, 2023).
Activity calls are given as the source filed them. The calls are words filed in the database; no cut-off is given here.

Tests used:
HeLa [1] = assay: Induction of apoptosis in human HeLa cells assessed as increase in percentage of apoptosis/necrosis at 50 nM incubated for 3 hrs with photo-irradiation at 54 J/cm2 by Annexin V-FITC/PI staining based flow cytometry relative to control; format: functional
HeLa [2] = assay: Induction of apoptosis in human HeLa cells assessed as early apoptotic cells at 100 nM incubated for 3 hrs by Annexin V-FITC/PI staining based flow cytometry relative to control; format: toxicity, cell-based; conditions: 0.1 µM
[3] = Drug distribution in heart of Balb/C nu/nu mouse xenografted with human HeLa cells at 2.5 umol/kg, iv measured for 24 hr by IVIS imaging analysis; format: ADME, organism-based; conditions: in vivo, dose 2.5 µmol/kg
[4] = Cytotoxicity against human HeLa cells assessed as inhibition of cell viability under dark condition incubated for 27 hrs by CCK8 assay; format: toxicity, cell-based
HeLa [5] = assay: Induction of apoptosis in human HeLa cells assessed as viable cells at 12.5 nM incubated for 3 hrs with photo-irradiation at 54 J/cm2 by Annexin V-FITC/PI staining based flow cytometry relative to control; format: functional; conditions: light or radiation study, read-out: Activity
[6] = Toxicity in Balb/C nu/nu mouse xenografted with human HeLa cells assessed as change in spleen histology at 2.5 umol/kg, iv with photo-irradiation at 30 J/cm2 after 1 hr of compound administration measured after 24 days by H and E staining based analysis; format: organism-based; conditions: in vivo, 576 h, dose 2.5 µmol/kg, time 24 day
[7] = Drug localization in endoplasmic reticulum of human HeLa cells at 5 uM incubated for 30 mins by ER-Tracker Green dye based confocal scanning microscopic analysis; format: ADME; conditions: 0.5 h
[8] = Cytotoxicity against HUVEC cells assessed as inhibition of cell viability under dark condition incubated for 27 hrs by CCK8 assay; format: toxicity, cell-based; conditions: human
[9] = Toxicity in Balb/C nu/nu mouse xenografted with human HeLa cells assessed as change in heart histology at 2.5 umol/kg, iv with photo-irradiation at 30 J/cm2 after 1 hr of compound administration measured after 24 days by H and E staining based analysis; format: organism-based; conditions: in vivo, 576 h, dose 2.5 µmol/kg, time 24 day
HeLa [10] = assay: Induction of apoptosis in human HeLa cells assessed as necrotic cells at 50 nM incubated for 3 hrs with photo-irradiation at 54 J/cm2 by Annexin V-FITC/PI staining based flow cytometry relative to control; format: functional
HeLa [11] = assay: Induction of apoptosis in human HeLa cells assessed as viable cells at 100 nM incubated for 3 hrs by Annexin V-FITC/PI staining based flow cytometry relative to control; format: toxicity, cell-based; conditions: read-out: Activity
HepG2 = assay: Photodynamic cytotoxicity against human HepG2 cells assessed as inhibition of cell viability incubated for 3 hrs followed by photo-irradiation at 54 J/cm2 measured after 24 hrs by CCK8 assay; format: functional, cell-based; conditions: HepG2, light or radiation study
[12] = Drug concentration in plasma of Balb/C nu/nu mouse xenografted with human HeLa cells at 2.5 umol/kg, iv measured after 24 hr by IVIS imaging analysis; format: ADME, organism-based; conditions: in vivo, at 2.5 µmol/kg
HeLa [13] = assay: Induction of apoptosis in human HeLa cells assessed as viable cells at 100 nM incubated for 3 hrs with photo-irradiation at 54 J/cm2 by Annexin V-FITC/PI staining based flow cytometry relative to control; format: functional; conditions: light or radiation study, read-out: Activity
HeLa [14] = assay: Induction of apoptosis in human HeLa cells assessed as necrotic cells at 100 nM incubated for 3 hrs with photo-irradiation at 54 J/cm2 by Annexin V-FITC/PI staining based flow cytometry relative to control; format: functional
[15] = Drug distribution in kidneys of Balb/C nu/nu mouse xenografted with human HeLa cells at 2.5 umol/kg, iv measured for 24 hr by IVIS imaging analysis; format: ADME, organism-based, Kidney; conditions: in vivo, dose 2.5 µmol/kg
HeLa [16] = assay: Antitumor activity against human HeLa cells xenografted in Balb/C nu/nu mouse assessed as reduction in tumor histology at 2.5 umol/kg, iv with photo-irradiation at 30 J/cm2 after 1 hr of compound administration measured after 24 days by H and E staining based analysis; format: functional, organism-based; conditions: dose 2.5 µmol/kg, time 24.0 day
[17] = Toxicity in Balb/C nu/nu mouse xenografted with human HeLa cells assessed as drug tolerance at 2.5 umol/kg, iv with photo-irradiation at 30 J/cm2 after 1 hr of compound administration measured for 24 days; format: organism-based; conditions: in vivo, 576 h, dose 2.5 µmol/kg, time 24 day
[18] = Drug distribution in liver of Balb/C nu/nu mouse xenografted with human HeLa cells at 2.5 umol/kg, iv measured for 24 hr by IVIS imaging analysis; format: ADME, organism-based; conditions: in vivo, dose 2.5 µmol/kg
HeLa [19] = assay: Induction of apoptosis in human HeLa cells assessed as late apoptotic cells at 100 nM incubated for 3 hrs with photo-irradiation at 54 J/cm2 by Annexin V-FITC/PI staining based flow cytometry relative to control; format: functional
[20] = Cytotoxicity against mouse B16-F10 cells assessed as inhibition of cell viability under dark condition incubated for 27 hrs by CCK8 assay; format: toxicity, cell-based
HeLa [21] = assay: Induction of apoptosis in human HeLa cells assessed as necrotic cells at 12.5 nM incubated for 3 hrs with photo-irradiation at 54 J/cm2 by Annexin V-FITC/PI staining based flow cytometry relative to control; format: functional
HeLa [22] = assay: Induction of ROS production in human HeLa cells preincubated for 2 hrs followed by H2DCFDA probe exposure for 30 mins and subsequent removal of probe with photo-irradiation at 16 J/cm2 by confocal scanning microscopic analysis; format: functional, cell-based; conditions: dose <= 200.0 nM, time 2.5 hrs
[23] = Drug distribution in tumor of Balb/C nu/nu mouse xenografted with human HeLa cells at 2.5 umol/kg, iv measured for 24 hr by IVIS imaging analysis; format: ADME, organism-based, Neoplasm; conditions: in vivo, dose 2.5 µmol/kg
[24] = Drug distribution in liver of Balb/C nu/nu mouse xenografted with human HeLa cells at 2.5 umol/kg, iv measured for 1 hr by IVIS imaging analysis; format: ADME, organism-based; conditions: in vivo, dose 2.5 µmol/kg
HeLa [25] = assay: Disruption of lysosomes in human HeLa cells at 50 to 100 nM incubated for 3 hrs with photo-irradiation at 16 J/cm2 by AO staining based confocal scanning microscopy; format: functional, cell-based; conditions: dose 50-100 nM
[26] = Drug distribution in heart of Balb/C nu/nu mouse xenografted with human HeLa cells at 2.5 umol/kg, iv measured for 1 hr by IVIS imaging analysis; format: ADME, organism-based; conditions: in vivo, dose 2.5 µmol/kg
HeLa [27] = assay: Induction of apoptosis in human HeLa cells assessed as early apoptotic cells at 100 nM incubated for 3 hrs with photo-irradiation at 54 J/cm2 by Annexin V-FITC/PI staining based flow cytometry relative to control; format: functional
HeLa [28] = assay: Induction of apoptosis in human HeLa cells assessed as viable cells at 25 nM incubated for 3 hrs with photo-irradiation at 54 J/cm2 by Annexin V-FITC/PI staining based flow cytometry relative to control; format: functional; conditions: light or radiation study, read-out: Activity
[29] = Cytotoxicity against human HepG2 cells assessed as inhibition of cell viability under dark condition incubated for 27 hrs by CCK8 assay; format: toxicity, cell-based
HeLa [30] = assay: Induction of apoptosis in human HeLa cells assessed as late apoptotic cells at 100 nM incubated for 3 hrs by Annexin V-FITC/PI staining based flow cytometry relative to control; format: toxicity, cell-based; conditions: 0.1 µM
[31] = Drug distribution in spleen of Balb/C nu/nu mouse xenografted with human HeLa cells at 2.5 umol/kg, iv measured for 1 hr by IVIS imaging analysis; format: ADME, organism-based; conditions: in vivo, dose 2.5 µmol/kg

COc1ccc2c(c1)CCc1c(-c3ccccc3)c3n(c1-2)[B-](F)(F)[N+]1=C(c2ccc(OCC(=O)NCCCN4CCOCC4)cc2)C(I)=C(c2ccccc2)C1=N3
Activity (HeLa [1]): 41.8% | Activity (HeLa [2]): 1.52% | Drug uptake [3]: Not Active | IC50 at 27 h [4]: > 50 µM | viability at 0.0125 µM (HeLa [5]): 88.1% | Activity [6]: Non-Toxic | Drug uptake [7]: Not Active | IC50 at 27 h [8]: > 50 µM | Activity [9]: Non-Toxic | Activity (HeLa [10]): 2.08% | viability at 0.1 µM (HeLa [11]): 91.7% | IC50 (HepG2): 0.0061 µM | Drug uptake [12]: 1% | viability at 0.1 µM (HeLa [13]): 9.73% | Activity (HeLa [14]): 0.57% | Drug uptake [15]: Not Active | Activity (HeLa [16]): Active | Activity [17]: Non-Toxic | Drug uptake [18]: Not Active | Activity (HeLa [19]): 16.6% | IC50 at 27 h [20]: > 50 µM | Activity (HeLa [21]): 1.07% | Activity (HeLa [22]): Dose-Dependent Effect | Drug uptake [23]: Not Active | Drug uptake [24]: Active | Activity (HeLa [25]): Active | Drug uptake [26]: Active | Activity (HeLa [27]): 73.1% | viability at 0.025 µM (HeLa [28]): 47% | IC50 at 27 h [29]: > 50 µM | Activity (HeLa [30]): 5.79% | Drug uptake [31]: Active
